According to patent US12410208B2, “(2-acetamidyl)thio-beta-D-galactopyranoside derivatives” (Idorsia Pharmaceuticals Ltd, priority 2020, dated 2025):
Read-outs that look alike come from different tables or passages of the source.

Assays:
[1] = target: human Gal-1 (hGal-1) (Homo sapiens, UniProt P09382); assay: Competitive binding assay: biotinylated hGal-1 binding to microplate-adsorbed asialofetuin (ASF), spectrophotometric; conditions: hGal-1 binding to asialofetuin; Table 15; R and S epimers of selected Examples also listed; read-out: IC50 (Galectin-1 inhibition)
Sequence of human Gal-1 (hGal-1) (P09382 whole entry): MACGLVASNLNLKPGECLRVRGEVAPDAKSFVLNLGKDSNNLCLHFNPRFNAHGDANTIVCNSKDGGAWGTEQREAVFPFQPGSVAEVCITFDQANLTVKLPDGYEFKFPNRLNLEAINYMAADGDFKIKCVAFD
Protocol: (§1) Biological Assay Evaluation of Compound Inhibitory Activity (IC50)
The inhibitory activity of compounds is determined in competitive binding assays. This spectrophotometric assay measures the binding of biotinylated human Gal-3 (hGal-3) or human Gal-1 (hGal-1), respectively, to a microplate-adsorbed glycoprotein, asialofetuin (ASF) (Proc Natl Acad Sci USA. 2013 Mar. 26; 110(13):5052-7.).
Briefly, compounds are serially diluted in DMSO (working dilutions). ASF-coated 384well plates are supplemented with 22.8 μL/well of biotinylated hGal-3 or hGal-1 in assay buffer (i.e. 300-1000 ng/mL biotinylated hGal-3 or hGal-1) to which 1.2 μL of compound working dilutions are added and mixed.
(§2) Plates are incubated for 3 hours at 4° C., then washed with cold assay buffer (3×50 uL), incubated for 1 hour with 25 μL/well of a streptavidin-peroxidase solution (diluted in assay buffer to 80 ng/mL) at 4° C., followed by further washing steps with assay buffer (3×50 uL). Finally, 25 μL/well of ABTS substrate is added.
(§3) The calculated IC50 values may fluctuate depending on the daily assay performance. Fluctuations of this kind are known to those skilled in the art. IC50 values from several measurements are given as mean values.

[2] = target: biotinylated human Gal-3 (hGal-3) (Homo sapiens, UniProt P17931); assay: Competitive binding assay: biotinylated hGal-3 binding to microplate-adsorbed asialofetuin (ASF), spectrophotometric
Sequence of biotinylated human Gal-3 (hGal-3) (P17931 whole entry): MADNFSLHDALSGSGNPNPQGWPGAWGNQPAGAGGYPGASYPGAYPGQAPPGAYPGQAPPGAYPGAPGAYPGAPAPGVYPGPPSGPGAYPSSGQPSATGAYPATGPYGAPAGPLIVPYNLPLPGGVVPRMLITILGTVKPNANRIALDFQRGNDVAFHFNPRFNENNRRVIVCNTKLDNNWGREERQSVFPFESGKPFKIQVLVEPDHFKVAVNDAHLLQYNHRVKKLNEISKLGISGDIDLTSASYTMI
Protocol: If not explicitly mentioned otherwise, the inhibition data refer to the binding of biotinylated human Gal-3 (hGal-3).
as §1
The inhibitory activity of compounds is determined in competitive binding assays.
Briefly, compounds are serially diluted in DMSO (working dilutions).
as §2, §3

[3] = Gal-3 inhibition, Table 5, read-out: IC50
[4] = Table 8, hGal-3, read-out: IC50 (Gal-3 inhibition)
[5] = Gal-3 inhibition, Table 3, read-out: IC50
[6] = Table 6, hGal-3, read-out: IC50 (Gal-3 inhibition)

| Compound | IC50 [1] | IC50 [2, 5] | further results |
| --- | --- | --- | --- |
| 2-(((2S,3R,4S,5R,6R)-3,5-Dihydroxy-6-(hydroxymethyl)-4-(4-(3,4,5-trifluorophenyl)-1H-1,2,3-triazol-1-yl)tetrahydro-2H-pyran-2-yl)thio)-N-ethyl-2-(4-hydroxy-1-methylpiperidin-4-yl)-N-methylacetamide [Example 2.40.203.] | 160 nM |  | IC50 ([2]; Gal-3 inhibition, Table 4, read-out: IC50): 80 nM |
| CN(C)C(=O)C(S[C@@H]1O[C@H](CO)[C@H](O)[C@H](n2cc(-c3cc(F)c(F)c(F)c3)nn2)[C@H]1O)C1(O)CCC(F)(F)CC1 (mixture of isomers) [Example 2.44.201., 2-(4,4-Difluoro-1-hydroxycyclohexyl)-2-(((2S,3R,4S,5R,6R)-3,5-dihydroxy-6-(hydroxymethyl)-4-(4-(3,4,5-trifluorophenyl)-1H-1,2,3-triazol-1-yl)tetrahydro-2H-pyran-2-yl)thio)-N,N-dimethylacetamide] | 230 nM |  | IC50 [2, 3]: 100 nM |
| CN(CC1(F)CCCC1)C(=O)C(S[C@@H]1O[C@H](CO)[C@H](O)[C@H](n2cc(-c3cc(F)c(F)c(F)c3)nn2)[C@H]1O)C1(O)CCC(F)(F)CC1 (mixture of isomers) [Example 2.44.223., 2-(4,4-Difluoro-1-hydroxycyclohexyl)-2-(((2S,3R,4S,5R,6R)-3,5-dihydroxy-6-(hydroxymethyl)-4-(4-(3,4,5-trifluorophenyl)-1H-1,2,3-triazol-1-yl)tetrahydro-2H-pyran-2-yl)thio)-N-((1-fluorocyclopentyl)methyl)-N-methylacetamide] | 120 nM |  | IC50 [2, 3]: 50 nM |
| CCN(C)C(=O)C(S[C@@H]1O[C@H](CO)[C@H](O)[C@H](n2cc(-c3cc(F)c(F)c(F)c3)nn2)[C@H]1O)C1(O)CCN(S(C)(=O)=O)CC1 (mixture of isomers) [Example 2.47.203., 2-(((2S,3R,4S,5R,6R)-3,5-Dihydroxy-6-(hydroxymethyl)-4-(4-(3,4,5-trifluorophenyl)-1H-1,2,3-triazol-1-yl)tetrahydro-2H-pyran-2-yl)thio)-N-ethyl-2-(4-hydroxy-1-(methylsulfonyl)piperidin-4-yl)-N-methylacetamide] | 110 nM |  | IC50 [2, 4]: 30 nM |
| CN(C)C(=O)C(S[C@@H]1O[C@H](CO)[C@H](O)[C@H](n2cc(-c3cc(F)c(F)c(F)c3)nn2)[C@H]1O)C1(O)CCC(F)(F)CC1 (single isomer, unassigned) [Example 2.44.201R.] | 1710 nM |  | IC50 [2, 3]: 1330 nM |
| CN(C)C(=O)C(S[C@@H]1O[C@H](CO)[C@H](O)[C@H](n2cc(-c3cc(F)c(F)c(F)c3)nn2)[C@H]1O)C1(O)CCC(F)(F)CC1 (single isomer, unassigned) [Example 2.44.201S.] | 180 nM |  | IC50 [2, 3]: 40 nM |
| CCN(C)C(=O)C(S[C@@H]1O[C@H](CO)[C@H](O)[C@H](n2cc(-c3cc(F)c(F)c(F)c3)nn2)[C@H]1O)C1(O)CCN(S(C)(=O)=O)CC1 (single isomer, unassigned) [Example 2.47.203S.] | 30 nM |  | IC50 [2, 4]: 10 nM |
| CCN(C)C(=O)C(S[C@@H]1O[C@H](CO)[C@H](O)[C@H](n2cc(-c3cccc(F)c3)nn2)[C@H]1O)C1(O)CCOCC1 (stereo partly drawn) [Example 1.41.203., N-Ethyl-2-(((2S,3R,4S,5R,6R)-4-(4-(3-fluorophenyl)-1H-1,2,3-triazol-1-yl)-3,5-dihydroxy-6-(hydroxymethyl)tetrahydro-2H-pyran-2-yl)thio)-2-(4-hydroxytetrahydro-2H-pyran-4-yl)-N-methylacetamide] | 160 nM |  | IC50 ([2]; Table 11, hGal-3, read-out: IC50 (Gal-3 inhibition)): 130 nM |
| CN(C)C(=O)C(S[C@@H]1O[C@H](CO)[C@H](O)[C@H](n2cc(-c3cc(F)c(F)c(F)c3)nn2)[C@H]1O)C(C)(C)O (stereo partly drawn) [Example 2.31.201., 2-(((2S,3R,4S,5R,6R)-3,5-Dihydroxy-6-(hydroxymethyl)-4-(4-(3,4,5-trifluorophenyl)-1H-1,2,3-triazol-1-yl)tetrahydro-2H-pyran-2-yl)thio)-3-hydroxy-N,N,3-trimethylbutanamide] | 1920 nM | 270 nM |  |
| CCN(CC)C(=O)C(S[C@@H]1O[C@H](CO)[C@H](O)[C@H](n2cc(-c3cc(F)c(F)c(F)c3)nn2)[C@H]1O)C(C)(C)O (stereo partly drawn) [Example 2.31.202., 2-(((2S,3R,4S,5R,6R)-3,5-Dihydroxy-6-(hydroxymethyl)-4-(4-(3,4,5-trifluorophenyl)-1H-1,2,3-triazol-1-yl)tetrahydro-2H-pyran-2-yl)thio)-N,N-diethyl-3-hydroxy-3-methylbutanamide] | 2770 nM | 160 nM |  |
| CCN(C)C(=O)C(S[C@@H]1O[C@H](CO)[C@H](O)[C@H](n2cc(-c3cc(F)c(F)c(F)c3)nn2)[C@H]1O)C(C)(C)O (stereo partly drawn) [Example 2.31.203., 2-(((2S,3R,4S,5R,6R)-3,5-Dihydroxy-6-(hydroxymethyl)-4-(4-(3,4,5-trifluorophenyl)-1H-1,2,3-triazol-1-yl)tetrahydro-2H-pyran-2-yl)thio)-N-ethyl-3-hydroxy-N,3-dimethylbutanamide] | 880 nM | 210 nM |  |
| CCN(C)C(=O)[C@@H](S[C@@H]1O[C@H](CO)[C@H](O)[C@H](n2cc(-c3cc(F)c(F)c(F)c3)nn2)[C@H]1O)C(C)(C)O [Example 2.31.203S., (S)-2-(((2S,3R,4S,5R,6R)-3,5-Dihydroxy-6-(hydroxymethyl)-4-(4-(3,4,5-trifluorophenyl)-1H-1,2,3-triazol-1-yl)tetrahydro-2H-pyran-2-yl)thio)-N-ethyl-3-hydroxy-N,3-dimethylbutanamide] | 240 nM | 70 nM |  |
| CC1CCN1C(=O)C(S[C@@H]1O[C@H](CO)[C@H](O)[C@H](n2cc(-c3cc(F)c(F)c(F)c3)nn2)[C@H]1O)C(C)(C)O (stereo partly drawn) [Example 2.31.204., 2-(((2S,3R,4S,5R,6R)-3,5-Dihydroxy-6-(hydroxymethyl)-4-(4-(3,4,5-trifluorophenyl)-1H-1,2,3-triazol-1-yl)tetrahydro-2H-pyran-2-yl)thio)-3-hydroxy-3-methyl-1-(2-methylazetidin-1-yl)butan-1-one] | 2800 nM | 140 nM |  |
| CC(C)(O)C(S[C@@H]1O[C@H](CO)[C@H](O)[C@H](n2cc(-c3cc(F)c(F)c(F)c3)nn2)[C@H]1O)C(=O)N1CCC1 (stereo partly drawn) [Example 2.31.206., 1-(Azetidin-1-yl)-2-(((2S,3R,4S,5R,6R)-3,5-dihydroxy-6-(hydroxymethyl)-4-(4-(3,4,5-trifluorophenyl)-1H-1,2,3-triazol-1-yl)tetrahydro-2H-pyran-2-yl)thio)-3-hydroxy-3-methylbutan-1-one] | 1400 nM | 200 nM |  |
| CN(Cc1ccccc1)C(=O)C(S[C@@H]1O[C@H](CO)[C@H](O)[C@H](n2cc(-c3cc(F)c(F)c(F)c3)nn2)[C@H]1O)C(C)(C)O (stereo partly drawn) [Example 2.31.207., N-Benzyl-2-(((2S,3R,4S,5R,6R)-3,5-dihydroxy-6-(hydroxymethyl)-4-(4-(3,4,5-trifluorophenyl)-1H-1,2,3-triazol-1-yl)tetrahydro-2H-pyran-2-yl)thio)-3-hydroxy-N,3-dimethylbutanamide] | 570 nM |  | IC50 [2, 6]: 60 nM |
| CC(C)(O)C(S[C@@H]1O[C@H](CO)[C@H](O)[C@H](n2cc(-c3cc(F)c(F)c(F)c3)nn2)[C@H]1O)C(=O)N1CCCCC1 (stereo partly drawn) [Example 2.31.208., 2-(((2S,3R,4S,5R,6R)-3,5-Dihydroxy-6-(hydroxymethyl)-4-(4-(3,4,5-trifluorophenyl)-1H-1,2,3-triazol-1-yl)tetrahydro-2H-pyran-2-yl)thio)-3-hydroxy-3-methyl-1-(piperidin-1-yl)butan-1-one] | 30 nM |  | IC50 [2, 6]: 70 nM |
